Among the data in ChEMBL document CHEMBL5233238, “Research progress on sirtuins family members and cell senescence” (2020) are Activity values, retold here.

Holding throughout (format): functional
For test [1], the system named is Caenorhabditis elegans. As to the kind of experiment: Regulation of metabolic activity in […] assessed as increasing in average life span at 100 mol/L relative to control.
Test [2] deals with Caenorhabditis elegans. Description: Regulation of metabolic activity in […] assessed as increasing in average life span at 25 mol/L relative to control.
The test system of test [3] is Caenorhabditis elegans. As to the kind of experiment: Regulation of metabolic activity in […] assessed as increasing in average life span at 50 mol/L relative to control.

For `CN(C)C(=N)NC(=N)N` [METFORMIN], the Activity came out at 3% in the test with Caenorhabditis elegans [1], 18% in the test with Caenorhabditis elegans [2] and 36% in the test on Caenorhabditis elegans [3].
